Measurements reported in US5210193A, “Piperazine derivatives” (American Cyanamid Company, priority 1990, dated 1993).
Values after ≈ are worked out from the molar mass of the structure shown. Like-named read-outs stand apart in the source and are kept apart here.

Key:
[1] = test system: Staphylococcus aureus Smith; experiment: in vivo antibacterial activity, survival of infected mice (Table III); parameters: species or system Charles River CD-1 mice; conditions: subcutaneous
Description: Charles River CD-1 mice were infected with either Klebsiella pneumoniae AD or Staphylococcus aureus Smith. A single subcutaneous dose of the test compound was administered 1/2 hour after infection. […] The results appear in Tables II and III, wherein the representative test compounds are identified by the number of their hereinafter described examples.

[2] = test system: Acinetobacter calcoaceticus MOR 84-43; experiment: in vitro antibacterial MIC, agar plate dilution; type: cell-based; conditions: 35° C.
Summary of the method: (§1)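 Agar plate dilution on Mueller-Hinton agar, inoculum approximately 10^4 CFU per organism applied with a Steers replicator. MIC (mcg/ml) is the lowest compound concentration inhibiting visible growth after 18 hours at 35° C.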

[3] = test system: Enterobacter aerogenes VGH 84-36; experiment: in vitro antibacterial MIC, agar plate dilution; type: cell-based; conditions: 35° C.
Summary of the method: as §1

[4] = test system: Enterobacter cloacae K 84-10; experiment: in vitro antibacterial MIC, agar plate dilution; type: cell-based; conditions: 35° C.
Summary of the method: as §1

[5] = test system: Enterobacter cloacae VGH 84-37; experiment: in vitro antibacterial MIC, agar plate dilution; type: cell-based; conditions: 35° C.
Summary of the method: as §1

[6] = test system: Escherichia coli ATCC 25922; experiment: in vitro antibacterial MIC, agar plate dilution; type: cell-based; conditions: 35° C.
Summary of the method: as §1

[7] = test system: Escherichia coli CMC 84-11; experiment: in vitro antibacterial MIC, agar plate dilution; type: cell-based; conditions: 35° C.
Summary of the method: as §1

[8] = test system: Escherichia coli CMC 84-16; experiment: in vitro antibacterial MIC, agar plate dilution; type: cell-based; conditions: 35° C.
Summary of the method: as §1

Escherichia coli NAR 311 = experiment: in vitro antibacterial MIC, agar plate dilution; type: cell-based; conditions: 35° C.
Summary of the method: as §1

[9] = test system: Escherichia coli PRNT 311; experiment: in vitro antibacterial MIC, agar plate dilution; type: cell-based; conditions: 35° C.
Summary of the method: as §1

Klebsiella pneumoniae AD = experiment: in vitro antibacterial MIC, agar plate dilution; type: cell-based; conditions: 35° C.
Summary of the method: as §1

[10] = test system: Klebsiella pneumoniae MOR 84-4; experiment: in vitro antibacterial MIC, agar plate dilution; type: cell-based; conditions: 35° C.
Summary of the method: as §1

[11] = test system: Morganella morganii CMC 84-37; experiment: in vitro antibacterial MIC, agar plate dilution; type: cell-based; conditions: 35° C.
Summary of the method: as §1

[12] = test system: Morganella morganii VGH 84-11; experiment: in vitro antibacterial MIC, agar plate dilution; type: cell-based; conditions: 35° C.
Summary of the method: as §1

[13] = test system: Proteus rettgeri CMC 84-41; experiment: in vitro antibacterial MIC, agar plate dilution; type: cell-based; conditions: 35° C.
Summary of the method: as §1

[14] = test system: Pseudomonas aeruginosa LL-1244; experiment: in vitro antibacterial MIC, agar plate dilution; type: cell-based; conditions: 35° C.
Summary of the method: as §1

[15] = test system: Pseudomonas aeruginosa VGH 84-4; experiment: in vitro antibacterial MIC, agar plate dilution; type: cell-based; conditions: 35° C.
Summary of the method: as §1

[16] = test system: Serratia marcescens F 0-35; experiment: in vitro antibacterial MIC, agar plate dilution; type: cell-based; conditions: 35° C.
Summary of the method: as §1

[17] = test system: Serratia marcescens K 84-18; experiment: in vitro antibacterial MIC, agar plate dilution; type: cell-based; conditions: 35° C.
Summary of the method: as §1

[18] = test system: Staphylococcus Spp saprophiticus VGH 84-50; experiment: in vitro antibacterial MIC, agar plate dilution; type: cell-based; conditions: 18 hours, 35° C.
Summary of the method: as §1

[19] = test system: Staphylococcus aureus ATTC 29213; experiment: in vitro antibacterial MIC, agar plate dilution; type: cell-based; conditions: 35° C.
Summary of the method: as §1

[20] = test system: Staphylococcus aureus CMC 83-127; experiment: in vitro antibacterial MIC, agar plate dilution; type: cell-based; conditions: 35° C.
Summary of the method: as §1

[21] = test system: Staphylococcus aureus CMC 83-128; experiment: in vitro antibacterial MIC, agar plate dilution; type: cell-based; conditions: 35° C.
Summary of the method: as §1

[22] = test system: Staphylococcus aureus Smith; experiment: in vitro antibacterial MIC, agar plate dilution; type: cell-based; conditions: 35° C.
Summary of the method: as §1

[23] = test system: Staphylococcus aureus VGH 84-45; experiment: in vitro antibacterial MIC, agar plate dilution; type: cell-based; conditions: 35° C.
Summary of the method: as §1

[24] = test system: Staphylococcus aureus VGH 84-46; experiment: in vitro antibacterial MIC, agar plate dilution; type: cell-based; conditions: 35° C.
Summary of the method: as §1

[25] = test system: Staphylococcus epidermidis CMC 83-135; experiment: in vitro antibacterial MIC, agar plate dilution; type: cell-based; conditions: 35° C.
Summary of the method: as §1

[26] = test system: Staphylococcus epidermidis IO 83-58; experiment: in vitro antibacterial MIC, agar plate dilution; type: cell-based; conditions: 35° C.
Summary of the method: as §1

[27] = test system: Staphylococcus epidermidis VGH 84-40; experiment: in vitro antibacterial MIC, agar plate dilution; type: cell-based; conditions: 35° C.
Summary of the method: as §1

[28] = test system: Streptococcus faecalis ATTC 29212; experiment: in vitro antibacterial MIC, agar plate dilution; type: cell-based; conditions: 35° C.
Summary of the method: as §1

[29] = test system: Streptococcus faecalis VGH 84-65; experiment: in vitro antibacterial MIC, agar plate dilution; type: cell-based; conditions: 35° C.
Summary of the method: as §1

In the case of `FCC1CNCCN1` (centres unmarked) [Example 23, 2-(Fluoromethyl)piperazine], the “Survival Ratio 7 Days After Infection” value ([1]; 4 mg/kg single dose) was 0/5, the “Survival Ratio 7 Days After Infection” value ([1]; 8 mg/kg single dose) was 0/5 and the “Survival Ratio 7 Days After Infection” value ([1]; 16 mg/kg single dose) was 5/5. For the same molecule, the “Survival Ratio 7 Days After Infection” value ([1]; 32 mg/kg single dose) was 5/5 and the “Survival Ratio 7 Days After Infection” value ([1]; 64 mg/kg single dose) was 5/5.
`CCn1cc(C(=O)O)c(=O)c2cc(F)c(N3CCNC(CF)C3)c(F)c21` (single isomer, unassigned; (+)) [Example 65, (+)-N-Ethyl-6,8-difluoro-7-[3-(fluoromethyl)-1-piperazinyl]-1,4-dihydro-4-oxo-3-quinolinecarboxylic acid] gave an MIC ([2]; 18 hours) of 0.5 µg/mL (≈ 1.35 µM), an MIC ([3]; 18 hours) of 0.12 µg/mL (≈ 0.325 µM) and an MIC ([4]; 18 hours) of 0.06 µg/mL (≈ 0.162 µM). It also gave an MIC ([5]; 18 hours) of 0.12 µg/mL (≈ 0.325 µM), an MIC ([6]; 18 hours) of 0.06 µg/mL (≈ 0.162 µM) and an MIC ([7]; 18 hours) of 0.06 µg/mL (≈ 0.162 µM). It also gave an MIC ([8]; 18 hours) of 0.06 µg/mL (≈ 0.162 µM), an MIC (Escherichia coli NAR 311; 18 hours) of 1 µg/mL (≈ 2.71 µM) and an MIC ([9]; 18 hours) of 0.06 µg/mL (≈ 0.162 µM). The MIC (Klebsiella pneumoniae AD; 18 hours) was 0.12 µg/mL (≈ 0.325 µM), the MIC ([10]; 18 hours) was 0.12 µg/mL (≈ 0.325 µM) and the MIC ([11]; 18 hours) was 0.12 µg/mL (≈ 0.325 µM). For the same molecule, the MIC ([12]; 18 hours) was 0.12 µg/mL (≈ 0.325 µM), the MIC ([13]; 18 hours) was 0.25 µg/mL (≈ 0.677 µM) and the MIC ([14]; 18 hours) was 8 µg/mL (≈ 21.7 µM). The MIC ([15]; 18 hours) was 1 µg/mL (≈ 2.71 µM), the MIC ([16]; 18 hours) was 0.25 µg/mL (≈ 0.677 µM) and the MIC ([17]; 18 hours) was 0.25 µg/mL (≈ 0.677 µM). For the same molecule, the MIC [18] was 1 µg/mL (≈ 2.71 µM), the MIC ([19]; 18 hours) was 0.25 µg/mL (≈ 0.677 µM) and the MIC ([20]; 18 hours) was 0.12 µg/mL (≈ 0.325 µM). For the same molecule, the MIC ([21]; 18 hours) was 0.25 µg/mL (≈ 0.677 µM), the MIC ([22]; 18 hours) was 0.25 µg/mL (≈ 0.677 µM) and the MIC ([23]; 18 hours) was 0.12 µg/mL (≈ 0.325 µM). The MIC ([24]; 18 hours) was 0.25 µg/mL (≈ 0.677 µM), the MIC ([25]; 18 hours) was 0.25 µg/mL (≈ 0.677 µM) and the MIC ([26]; 18 hours) was 0.25 µg/mL (≈ 0.677 µM). For the same molecule, the MIC ([27]; 18 hours) was 0.25 µg/mL (≈ 0.677 µM), the MIC ([28]; 18 hours) was 4 µg/mL (≈ 10.8 µM) and the MIC ([29]; 18 hours) was 4 µg/mL (≈ 10.8 µM).
`CCn1cc(C(=O)O)c(=O)c2cc(F)c(N3CCNC(CF)C3)c(F)c21` (racemic) [Example 63, (racemic)-N-Ethyl-6,8-difluoro-7-[3-(fluoromethyl)-1-piperazinyl]-1,4-dihydro-4-oxo-3-quinolinecarboxylic acid] was tested, and the MIC ([2]; MOR8443, 18 hours, read-out: MIC) was 0.5 µg/mL (≈ 1.35 µM), the MIC ([3]; Klebsiella aerogenes, VGH8436, 18 hours, read-out: MIC) was 0.25 µg/mL (≈ 0.677 µM) and the MIC ([4]; Enterobacter cloacae, K8410, 18 h, read-out: MIC) was 0.12 µg/mL (≈ 0.325 µM). The MIC ([5]; Enterobacter cloacae, VGH8437, 18 h, read-out: MIC) was 0.5 µg/mL (≈ 1.35 µM), the MIC ([6]; Escherichia coli, ATCC25922, 18 h, read-out: MIC) was 0.06 µg/mL (≈ 0.162 µM) and the MIC ([7]; Escherichia coli, CMC8411, 18 h, read-out: MIC) was 0.06 µg/mL (≈ 0.162 µM). For the same molecule, the MIC ([8]; Escherichia coli, CMC8416, 18 h, read-out: MIC) was 0.06 µg/mL (≈ 0.162 µM), the MIC (Escherichia coli NAR 311; NAR311, 18 hours, read-out: MIC) was 1 µg/mL (≈ 2.71 µM) and the MIC ([9]; PRNT311, 18 hours, read-out: MIC) was 0.12 µg/mL (≈ 0.325 µM). The MIC (Klebsiella pneumoniae AD; Klebsiella pneumoniae, 18 h, read-out: MIC) was 0.12 µg/mL (≈ 0.325 µM), the MIC ([10]; Klebsiella pneumoniae, MOR844, 18 h, read-out: MIC) was 0.12 µg/mL (≈ 0.325 µM) and the MIC ([11]; Morganella morganii, CMC8437, 18 h, read-out: MIC) was 0.12 µg/mL (≈ 0.325 µM). It also gave an MIC ([12]; VGH8411, 18 hours, read-out: MIC) of 0.5 µg/mL (≈ 1.35 µM), an MIC ([13]; Providencia rettgeri, CMC8441, 18 h, read-out: MIC) of 0.5 µg/mL (≈ 1.35 µM) and an MIC ([14]; Pseudomonas aeruginosa, LL1244, 18 h, read-out: MIC) of 8 µg/mL (≈ 21.7 µM). For the same molecule, the MIC ([15]; Pseudomonas aeruginosa, VGH844, 18 h, read-out: MIC) was 2 µg/mL (≈ 5.42 µM), the MIC ([16]; Serratia marcescens, F035, 18 h, read-out: MIC) was 0.5 µg/mL (≈ 1.35 µM) and the MIC ([17]; Serratia marcescens, K8418, 18 h, read-out: MIC) was 0.06 µg/mL (≈ 0.162 µM). The MIC ([18]; read-out: MIC) was 0.06 µg/mL (≈ 0.162 µM), the MIC ([19]; Staphylococcus aureus, ATTC29213, 18 h, read-out: MIC) was 0.25 µg/mL (≈ 0.677 µM) and the MIC ([20]; Staphylococcus aureus, CMC83127, 18 h, read-out: MIC) was 0.12 µg/mL (≈ 0.325 µM). For the same molecule, the MIC ([21]; CMC83128, 18 hours, read-out: MIC) was 0.03 µg/mL (≈ 0.0812 µM), the MIC ([22]; Staphylococcus aureus, 18 h, read-out: MIC) was 0.25 µg/mL (≈ 0.677 µM) and the MIC ([23]; Staphylococcus aureus, VGH8445, 18 h, read-out: MIC) was 0.25 µg/mL (≈ 0.677 µM). For the same molecule, the MIC ([24]; Staphylococcus aureus, VGH8446, 18 h, read-out: MIC) was 0.25 µg/mL (≈ 0.677 µM), the MIC ([25]; CMC83135, 18 hours, read-out: MIC) was 0.5 µg/mL (≈ 1.35 µM) and the MIC ([26]; IO8358, 18 hours, read-out: MIC) was 0.25 µg/mL (≈ 0.677 µM). The MIC ([27]; VGH8440, 18 hours, read-out: MIC) was 0.25 µg/mL (≈ 0.677 µM), the MIC ([28]; Enterococcus faecalis, ATTC29212, 18 hours, read-out: MIC) was 4 µg/mL (≈ 10.8 µM) and the MIC ([29]; Enterococcus faecalis, VGH8465, 18 h, read-out: MIC) was 4 µg/mL (≈ 10.8 µM).
